The text below walks through data of patent publication US11939319B2, “Pyridinyl and pyrazinyl-(asa)indolsulfonamides” (UCB Pharma GmbH, priority 2018, dated 2024).

GPR17, sequence (Q13304 29-367 limits assumed): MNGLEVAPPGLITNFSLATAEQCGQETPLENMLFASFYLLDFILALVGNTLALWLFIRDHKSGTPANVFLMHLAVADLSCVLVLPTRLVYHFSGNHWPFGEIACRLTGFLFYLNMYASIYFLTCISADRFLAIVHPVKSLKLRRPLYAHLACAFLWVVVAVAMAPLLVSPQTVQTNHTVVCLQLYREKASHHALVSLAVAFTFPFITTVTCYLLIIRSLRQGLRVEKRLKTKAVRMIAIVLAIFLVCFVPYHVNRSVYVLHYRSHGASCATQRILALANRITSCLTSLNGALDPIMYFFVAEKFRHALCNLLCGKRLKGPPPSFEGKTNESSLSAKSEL

This experiment addresses GPR17 (Homo sapiens, UniProt Q13304). Briefly: cAMP accumulation functional assay (HTRF) in CHO hGPR17 cells. The conditions noted are these: Schild analysis against MDL29,951, 5 μM forskolin, activity range, read-out: cAMP assay pA2 (converted). It is filed as cell-based. Further details: host or cells: Flp-In T-REx CHO cells, expression induced with doxycycline. As to the method: Flp-In T-REx CHO cells stably expressing human GPR17 receptor (CHO hGPR17) from Evi Kostenis' lab (Bonn University, Germany) were cultured at 37° C. in a humidified atmosphere of 5% CO2. Cells were grown in DMEM with Nutrient Mixture F-12 supplemented with hygromycin B (500 μg/ml) and blasticidin (30 μg/ml). Expression from the Flp-In locus was induced by treatment with doxycycline (1 μg/ml) for 16-20 h prior assays.
GPR17 activation can also recruit Gi-type G-protein signaling, resulting in a decrease of intracellular cyclic adenosine monophosphate (cAMP). Intracellular cAMP changes can be measured using the HTRF cAMP dynamic assay kit from CisBio (Codolet, France). Using homogenous time-resolved fluorescence technology (HTRF), the assay is based on competition between native cAMP produced by cells and cAMP labelled with the dye d2. The tracer binding was determined by an anti-cAMP antibody labeled with cryptate.
CHO hGPR17 were detached with PBS containing EDTA and dispatched in black 384-well plates with 5,000 cells per well. Cells were first incubated for 30 minutes at room temperature in HBSS Hepes (pH 7.4) containing vehicle or varying concentrations of test GPR17 antagonist/inverse agonist compounds. Then, a dose response curve of MDL29,951 GPR17 agonist (typically from 10^−5M to 10^−10M) was added on vehicle and on each test GPR17 antagonist/inverse agonist compound concentration in a final volume of 20 μL HBSS Hepes buffer (pH 7.4) containing 1% DMSO, 5 μM forskolin and 0.1 mM IBMX. After 60 minutes incubation at room temperature, the reaction is terminated and the cells lysed by adding the d2 detection reagent and the cryptate reagent in 10 μL lysis buffer each according to manufacturer's instructions. After 60 minutes incubation, changes in cAMP concentrations are measured according to manufacturer's instructions using an Envision plate reader with laser excitation. All incubations were performed in duplicate. Data was analyzed using GraphPad Prism software using the 4-parameter logistic equation to measure MDL29,951 pEC50s in absence and presence of GPR17 antagonist/inverse agonist test compounds. Dose ratio (DR) were plotted against antagonist concentrations and Schild analysis provided estimated affinity pA2 of GPR17 antagonist/inverse agonist test compounds.
The activities of the Example compounds tested are depicted in the table below. The activity ranges A, B and C refer to pA2 values in the cAMP assay as follows: “A”: pA2 6.5≤x<7.5, “B”: pA2 7.5≤x<8.5, “C”: 8.5≤pA2.
As to `COc1nc(OC(F)F)c(F)cc1NS(=O)(=O)c1c[nH]c2cc(Cl)ccc12` [Example I-9, 6-chloro-N-[6-(difluoromethoxy)-5-fluoro-2-methoxypyridin-3-yl]-1H-indole-3-sulfonamide], the Kb is no more than 3.16 nM.

With `COc1nc(Cl)cnc1NS(=O)(=O)c1c[nH]c2cc(Cl)ccc12` [Example I-11, 6-chloro-N-(5-chloro-3-methoxypyrazin-2-yl)-1H-indole-3-sulfonamide], the Kb was no more than 3.16 nM.

In the case of `COc1nc(OCCF)c(F)cc1NS(=O)(=O)c1c[nH]c2cc(Cl)ccc12` [Example I-12, 6-chloro-N-[5-fluoro-6-(2-fluoroethoxy)-2-methoxypyridin-3-yl]-1H-indole-3-sulfonamide], the Kb was no more than 3.16 nM.

`COc1nc(OCCF)ccc1NS(=O)(=O)c1c[nH]c2cc(Cl)ccc12` [Example I-13, 6-chloro-N-[6-(2-fluoroethoxy)-2-methoxypyridin-3-yl]-1H-indole-3-sulfonamide]: the Kb was 3.16 to 31.6 nM.

As to `COc1nc(OC(F)F)c(F)cc1NS(=O)(=O)c1c[nH]c2cc(C(F)F)ccc12` [Example I-16, N-[6-(difluoromethoxy)-5-fluoro-2-methoxypyridin-3-yl]-6-(difluoromethyl)-1H-indole-3-sulfonamide], the Kb was no more than 3.16 nM.

Take `COc1nc(OC(F)F)c(F)cc1NS(=O)(=O)c1c[nH]c2nc(Cl)ccc12` [Example I-22, 6-chloro-N-[6-(difluoromethoxy)-5-fluoro-2-methoxypyridin-3-yl]-1H-pyrrolo[2,3-b]pyridine-3-sulfonamide]: the Kb is no more than 3.16 nM.

With `O=S(=O)(Nc1cnc(Cl)cc1Cl)c1c[nH]c2cc(Cl)ccc12` [Example I-26, 6-chloro-N-(4,6-dichloropyridin-3-yl)-1H-indole-3-sulfonamide], the Kb was 31.6 to 316 nM.

Take `COc1nc(Cl)ccc1NS(=O)(=O)c1c[nH]c2cc(C(F)F)ccc12` [Example I-27, N-(6-chloro-2-methoxypyridin-3-yl)-6-(difluoromethyl)-1H-indole-3-sulfonamide]: the Kb is 31.6 to 316 nM.

On to `COc1nc(Cl)ccc1NS(=O)(=O)c1c[nH]c2nc(C(F)F)ccc12` [Example I-28, N-(6-chloro-2-methoxypyridin-3-yl)-6-(difluoromethyl)-1H-pyrrolo[2,3-b]pyridine-3-sulfonamide], for which the Kb is 31.6 to 316 nM.

For the molecule `COc1nc(Cl)c(F)cc1NS(=O)(=O)c1c[nH]c2nc(C(F)F)ccc12` [Example I-29, N-(6-chloro-5-fluoro-2-methoxypyridin-3-yl)-6-(difluoromethyl)-1H-pyrrolo[2,3-b]pyridine-3-sulfonamide], the Kb is 3.16 to 31.6 nM.

Consider `O=S(=O)(Nc1cc(F)c(OCC(F)F)nc1F)c1c[nH]c2nc(C(F)F)ccc12` [Example I-30, N-[6-(2,2-difluoroethoxy)-2,5-difluoro-3-pyridyl]-6-(difluoromethyl)-1H-pyrrolo[2,3-b]pyridine-3-sulfonamide], for which the Kb was 31.6 to 316 nM.

For the molecule `COc1nc(Cl)ccc1NS(=O)(=O)c1c[nH]c2nc(Cl)ccc12` [Example I-35, 6-chloro-N-(6-chloro-2-methoxypyridin-3-yl)-1H-pyrrolo[2,3-b]pyridine-3-sulfonamide], the Kb is 31.6 to 316 nM.

Regarding `COc1nc(OCCF)c(F)cc1NS(=O)(=O)c1c[nH]c2nc(Cl)ccc12` [Example I-36, 6-chloro-N-[5-fluoro-6-(2-fluoroethoxy)-2-methoxypyridin-3-yl]-1H-pyrrolo[2,3-b]pyridine-3-sulfonamide], the Kb is no more than 3.16 nM.

On to `COc1nc(OC(F)F)ccc1NS(=O)(=O)c1c[nH]c2nc(Cl)ccc12` [Example I-37, 6-chloro-N-[6-(difluoromethoxy)-2-methoxy-3-pyridyl]-1H-pyrrolo[2,3-b]pyridine-3-sulfonamide], for which the Kb is 3.16 to 31.6 nM.

Take `COc1nc(OCC(F)F)ccc1NS(=O)(=O)c1c[nH]c2cc(Cl)ccc12` [Example I-38, 6-chloro-N-[6-(2,2-difluoroethoxy)-2-methoxypyridin-3-yl]-1H-indole-3-sulfonamide]: the Kb was no more than 3.16 nM.

In the case of `COc1ccc(NS(=O)(=O)c2c[nH]c3cc(Cl)ccc23)c(OCC(F)F)n1` [Example I-39, 6-chloro-N-[2-(2,2-difluoroethoxy)-6-methoxypyridin-3-yl]-1H-indole-3-sulfonamide], the Kb is 3.16 to 31.6 nM.

Consider `COc1cc(OC(F)F)ncc1NS(=O)(=O)c1c[nH]c2cc(Cl)ccc12` [Example I-40, 6-chloro-N-[6-(difluoromethoxy)-4-methoxypyridin-3-yl]-1H-indole-3-sulfonamide], for which the Kb was 3.16 to 31.6 nM.

Turning to `O=S(=O)(Nc1cc(F)c(C2CC2)nc1F)c1c[nH]c2cc(Cl)ccc12` [Example I-41, 6-chloro-N-(6-cyclopropyl-2,5-difluoropyridin-3-yl)-1H-indole-3-sulfonamide], the Kb is 3.16 to 31.6 nM.

With `COc1nc(OCC(F)F)c(F)cc1NS(=O)(=O)c1c[nH]c2cc(Cl)ccc12` [Example I-42, 6-chloro-N-[6-(2,2-difluoroethoxy)-5-fluoro-2-methoxypyridin-3-yl]-1H-indole-3-sulfonamide], the Kb was no more than 3.16 nM.

On to `COc1nc(OCCOC(F)F)c(F)cc1NS(=O)(=O)c1c[nH]c2cc(Cl)ccc12` [Example I-43, 6-chloro-N-[6-[2-(difluoromethoxy)ethoxy]-5-fluoro-2-methoxypyridin-3-yl]-1H-indole-3-sulfonamide], for which the Kb was no more than 3.16 nM.

As for `O=S(=O)(Nc1cc(F)c(OCC(F)F)nc1F)c1c[nH]c2nc(Cl)ccc12` [Example I-44, 6-chloro-N-[6-(2,2-difluoroethoxy)-2,5-difluoropyridin-3-yl]-1H-pyrrolo[2,3-b]pyridine-3-sulfonamide], the Kb is 31.6 to 316 nM.

As to `COc1nc(OCC(F)F)ccc1NS(=O)(=O)c1c[nH]c2nc(Cl)ccc12` [Example I-45, 6-chloro-N-[6-(2,2-difluoroethoxy)-2-methoxypyridin-3-yl]-1H-pyrrolo[2,3-b]pyridine-3-sulfonamide], the Kb was 3.16 to 31.6 nM.

Regarding `COc1nc(OCC(F)F)c(F)cc1NS(=O)(=O)c1c[nH]c2nc(Cl)ccc12` [Example I-46, 6-chloro-N-[6-(2,2-difluoroethoxy)-5-fluoro-2-methoxypyridin-3-yl]-1H-pyrrolo[2,3-b]pyridine-3-sulfonamide], the Kb was no more than 3.16 nM.

For `O=S(=O)(Nc1cc(F)c(C2CC2)nc1F)c1c[nH]c2nc(Cl)ccc12` [Example I-47, 6-chloro-N-(6-cyclopropyl-2,5-difluoropyridin-3-yl)-1H-pyrrolo[2,3-b]pyridine-3-sulfonamide], the Kb was 3.16 to 31.6 nM.

For `COc1nc(OCCOC(F)F)c(F)cc1NS(=O)(=O)c1c[nH]c2nc(Cl)ccc12` [Example I-48, 6-chloro-N-[6-[2-(difluoromethoxy)ethoxy]-5-fluoro-2-methoxypyridin-3-yl]-1H-pyrrolo[2,3-b]pyridine-3-sulfonamide], the Kb is no more than 3.16 nM.

With `COc1ncc(F)cc1NS(=O)(=O)c1c[nH]c2nc(Cl)ccc12` [Example I-49, 6-chloro-N-(5-fluoro-2-methoxypyridin-3-yl)-1H-pyrrolo[2,3-b]pyridine-3-sulfonamide], the Kb was 31.6 to 316 nM.

For `COc1nc(C2CC2)c(F)cc1NS(=O)(=O)c1c[nH]c2cc(Cl)ccc12` [Example I-50, 6-chloro-N-(6-cyclopropyl-5-fluoro-2-methoxypyridin-3-yl)-1H-indole-3-sulfonamide], the Kb was no more than 3.16 nM.
